Measured values as given in paper PMC6212948, “Fucoxanthin-Containing Cream Prevents Epidermal Hyperplasia and UVB-Induced Skin Erythema in Mice” (Marine Drugs, 2018).

Tests used:
[1] = tested on: TPA-induced epidermal hyperplasia in mice dorsal skin; test: TPA-induced epidermal hyperplasia model; format: in vivo, Swiss CD-1 mice; details: topical cream 100 mg per site containing 200 µg drug, vs TPA-cream group
Procedure: Female Swiss CD-1 mice (n = 10 per group) were used to study the effect of FX on TPA-induced hyperplasia in mice dorsal skin. Briefly, the dorsal hair of animals was removed with an electric clipper and treated with depilatory cream (Deliplus, Barcelona, Spain). After 24 h, the animals were assigned to the different groups: Sham (vehicle: 100 mg of cream with 0.2% of ethanol); TPA control group; TPA-Cream (vehicle: 100 mg of cream with 0.2% of ethanol); Dex-cream (100 mg of cream per site, containing 200 µg of Dex dissolved in ethanol at 10 µg/mL); FX-cream formulation (100 mg of cream per site, containing 200 µg of FX dissolved in ethanol at 10 µg/mL). The creams were applied to the dorsal skin in an area of 1 cm^2 using a syringe, during 2 days before the hyperplasia induction. Mice were anesthetized with ketamine (100 mg/kg of animal) and diazepam (5 mg/kg of animal) during treatments and TPA challenge. On day 4, TPA (2 nmol of TPA, dissolved in 20 µL of ethanol) was topically applied to the same areas on all groups except in sham group. After 1 h, FX-cream, the Dex-cream or vehicle were administered following the mentioned protocol. This procedure was replicated during two consecutive days. After 24 h of the last TPA dorsal application (day 7), mice were sacrificed by cervical dislocation and punch biopsies from the treated dorsal skin were weighed to evaluate edema, before further processing for histology and biochemical parameters.
The measurement of MPO activity was used as a marker of neutrophil infiltration. The tissue was thawed, weighed and homogenized in 10 volumes of 50 mM-PBS (pH 7.4). Then, the homogenate was centrifuged at 20,000× g for 20 min at 4 °C and the pellet was again homogenized in 10 volumes of 50 mM-PBS (pH 6) containing hexadecyl trimethylammonium bromide (0.5%) and 10 mM-EDTA. This homogenate was subjected to one cycle of freezing/thawing and sonicated. […] The changes in absorbance were monitorized at 450 nm with a microplate reader (Labysystem Multiskan EX, Thermo Scientific, New York, NY, USA). MPO activity unit was defined as the amount of enzyme present that produced a change in absorbance of 1.0 unit/min at 37 °C in the final reaction volume containing acetate. Results are expressed as units/mg tissue.
The samples were fixed in paraformaldehyde, dehydrated by increasing concentrations of ethanol and embedded in paraffin. […] Epidermal thickness was measured by using Scientific Imaging Systems (Biophotonics ImageJ Analysis Software; National Institutes of Health, Rockville, MD, USA).
COX-2 expression was measured by immunohistochemical analysis by using a streptavidin-biotin-peroxidase method. […]

[2] = cited from earlier work
[3] = tested on: HaCaT human keratinocytes; test: SRB cell viability assay, HaCaT keratinocytes; format: cell-based; details: for % Viability HaCaT keratinocytes (24 h): mean ± ES, n = 3
Procedure: (§1) The THP-1 human monocytic leukemia cell line and HaCaT human keratinocytes were obtained from the American Type Culture Collection (ATCC, Manassas, VA, USA). THP-1 cells were cultured in RPMI 1640 medium (GIBCO, Grand Island, New York, NY, USA) containing 10% heat-inactivated fetal bovine serum (FBS), 100 U/mL penicillin and 100 μg/mL streptomycin. HaCaT human keratinocytes were maintained in high glucose Dulbecco’s modified Eagle’s medium (DMEM, GIBCO, Grand Island, New York, NY, USA). Both cell lines were grown in a humidified atmosphere containing 5% CO2 at 37 °C [20].
(§2) SRB assay was used for determining the viability of THP-1 macrophages and HaCaT cells upon exposure to FX (Sigma-Aldrich, St. Louis, MO, USA). Firstly, for differentiation into macrophages, THP-1 cells were seeded into 96-well plates at 10^4 cells/well in presence of phorbol 12-myristate 13-acetate (PMA, Sigma-Aldrich, St. Louis, MO, USA) for a final concentration of 0.2 µM for 72 h in 96-well plates and HaCaT cells were seeded into 96-well plates in the growth medium at 10^4 cells/well for 24 h to ensure the adherence. Both cellular types were incubated in a humidified atmosphere of 5% CO2 at 37 °C. After that, cells were treated with FX at final concentrations range of 10–100 µM in DMSO 0.1% (v/v) and the cytotoxicity was measured after 24, 48 and 72 h of incubation. The absorbance was determined at 492 nm in a microplate spectrophotometer (Sinergy HT, Biotek®, Bad Friedrichshall, Germany).

[4] = tested on: UVB-irradiated HaCaT cells; test: LDH assay in UVB-irradiated HaCaT keratinocytes; format: cell-based, human; details: 10, 30 and 50 μM, 1 h prior to UVB 50 mJ/cm^2, 24 h, dose-dependent
Procedure: (§3) Human keratinocytes were exposed to UVB radiation as previously described. Briefly, the cells were grown to confluence and were treated with different concentrations of FX (10, 30 and 50 µM) for 1 h. Then, the medium was removed and a thin layer of PBS was added. Cells were exposed to a single dose of UVB radiation (50 mJ/cm^2) for 1 min. The UVB source was a CL-1000M UV Crosslinker (UVP, Upland, CA, USA), which was used to deliver an energy spectrum of UVB light (280–315 nm; peak intensity, 302 nm). After UVB irradiation, the cells were supplied with fresh complete medium and incubated for 24 h.
The measure of cytosolic enzyme LDH is one of the commonly used methods for assessing loss of cellular membrane integrity. The assay is based on the conversion of […] in the presence of LDH with the consequence oxidation of NADH as previously described. HaCaT cells were seeded in 6-well plates (5 × 10^5 cells/well). After 24 h, cells were treated with FX (10, 30 and 50 μM) for 1 h and then, were irradiated with UVB. After 24 h, cell-free supernatants and cell lysates were mixed in a 96-well plate and the absorbance was read by using a microplate reader system (Sinergy HT, Biotek®, Bad Friedrichshall, Germany). LDH leakage was estimated calculating the LDH activity in the cell-free medium and LDH activity in lysates ratio. […]

[5] = tested on: IL-6 and IL-8 production in TNF-α-stimulated HaCaT keratinocytes; test: IL-6 and IL-8 production in TNF-α-stimulated HaCaT keratinocytes (ELISA); format: cell-based, human; details: all concentrations tested (10, 30 and 50 μM), 1 h pre-treatment, TNF-α 10 ng/mL 24 h, vs TNF-α group
Procedure: HaCaT cells were seeded in 6-well plates (5 × 10^5 cells/well). After 24 h, cells were washed twice (PBS, 4 °C) and medium containing FX (10, 30 and 50 μM) or Dex (1 μM) was added for 1 h, and then cells were stimulated with TNF-α (10 ng/mL) except for control group. After 24 h, supernatant fluids were collected and stored −80 °C until measurements. Commercial enzyme-linked immunosorbent assay (ELISA) kit (Diaclone GEN-PROBE, Besançon, France) was used to quantify IL-6 and IL-8 according to the manufacturer’s protocol.

THP-1 macrophages = test: SRB cell viability assay, THP-1 macrophages; format: cell-based, human; details: for % Viability THP-1 macrophages (24 h): mean ± ES, n = 3
Procedure: as §1, §2

[6] = tested on: IL-6 production in UVB-exposed HaCaT keratinocytes; test: IL-6 production in UVB-exposed HaCaT keratinocytes (ELISA); format: cell-based, human; details: 1 h prior to UVB, 24 h after exposure, vs UVB
Procedure: as §3
HaCaT cells (5 × 10^5 cells/well) were seeded in 6-well plates. After 24 h, cells were treated with FX (10, […] and 50 μM) for 1 h and then, were exposed to UVB. After 24 h, supernatant fluids were collected and ELISA kit (Diaclone GEN-PROBE, Besançon, France) was employed to quantify IL-6 according to the manufacturer’s protocol. The absorbance at 450 nm was read by a microplate reader (Labysystem Multiskan EX, Thermo Scientific, New York, NY, USA).

[7] = tested on: TNF-α production in LPS-stimulated THP-1 macrophages; test: TNF-α production in LPS-stimulated THP-1 macrophages (ELISA); format: cell-based, human
Procedure: THP-1 monocytes were differentiated into macrophages in 96-well plates (10^4 cells/well). Then, cells were incubated for 1 h with FX (10, 30 and 50 µM). The positive reference compound used was Dex (1 µM) (Sigma-Aldrich, St. Louis, MO, USA). Inflammatory response was induced by addition of LPS (1 μg/mL) except for control group. After 24 h, commercial enzyme-linked immunosorbent assay (ELISA) kit (Diaclone GEN-PROBE, Besançon, France) was used to quantify TNF-α according to the manufacturer’s protocol.

[8] = tested on: UVB-irradiated HaCaT cells; test: Intracellular ROS (DCF-DA assay) in UVB-irradiated HaCaT keratinocytes; format: cell-based, human; details: 1 h prior to UVB 50 mJ/cm^2, 30 min after irradiation, vs UVB
Procedure: as §3
For quantification of ROS in HaCaT cells, the DCF-DA assay was employed. HaCaT cells were seeded in nin96-well plates (10^4 cells/well). Non-irradiated cells were used as negative control. After 24 h, cells were treated with FX (10, 30 and 50 µM) for 1 h and then, were exposed to UVB. Post irradiation, cells were incubated with 2′,7′-dichlorodihydrofluorescein diacetate (DCFH-DA) solution (5 mg/mL) in PBS for 30 min [63]. The fluorescence of the 2′,7′-dichlorofluorescein (DCF) product was determined using a fluorescence plate reader (Sinergy HT, Biotek®, Bad Friedrichshall, Germany) at 485 nm for excitation and 535 nm for emission.

[9] = 24 h after treatment, SRB assay

Compound: C[C@@H]1C[C@H]2[C@@H]3CCC4=CC(=O)C=C[C@]4(C)[C@@]3(F)[C@@H](O)C[C@]2(C)[C@@]1(O)C(=O)CO [Dex, dexamethasone]
- epidermal hyperplasia (epidermal thickness, H&E) [1]: significant improvement
- myeloperoxidase (MPO) activity in skin homogenates [1]: markedly diminished
- epidermal COX-2-positive stained cells (immunohistochemistry) ([1]; p < 0.001): confirmed the anti-inflammatory effect
- skin edema (weight of 1 cm^2 punch biopsy) ([1]; p < 0.001): significantly reduced

Compound: CC(=O)O[C@H]1CC(C)(C)C(=C=C/C(C)=C/C=C/C(C)=C/C=C/C=C(C)/C=C/C=C(\C)C(=O)C[C@@]23O[C@]2(C)C[C@@H](O)CC3(C)C)[C@](C)(O)C1 [FX, fucoxanthin]
- partition coefficient (log P) [2]: 6.83–7.54
- % Viability HaCaT keratinocytes (24 h) ([3]; 10 μM): 111.2 ± 2.1%
- % Viability HaCaT keratinocytes (24 h) ([3]; 30 μM): 105.2 ± 4.0%
- % Viability HaCaT keratinocytes (24 h) ([3]; 50 μM): 103.9 ± 3.2%
- % Viability HaCaT keratinocytes (24 h) ([3]; 100 μM): 101.5 ± 2.2%
- IC50 [3, 9]: > 100 µM
- UVB-induced mortality (LDH activity) [4]: significantly decreased
- IL-6 production [5]: significantly reduced
- IL-8 production [5]: significantly reduced
- % Viability THP-1 macrophages (24 h) (THP-1 macrophages; 10 μM): 97.5 ± 2.0%
- % Viability THP-1 macrophages (24 h) (THP-1 macrophages; 30 μM): 96.5 ± 1.2%
- % Viability THP-1 macrophages (24 h) (THP-1 macrophages; 50 μM): 103.7 ± 1.1%
- % Viability THP-1 macrophages (24 h) (THP-1 macrophages; 100 μM): 90.7 ± 0.5%
- IC50 (THP-1 macrophages; [9]): > 100 µM
- inhibition of IL-6 levels ([6]; 10 μM): 23%
- inhibition of IL-6 levels ([6]; 30 μM): 31%
- inhibition of IL-6 levels ([6]; 50 μM): 59%
- TNF-α production ([7]; 50 µM pre-treatment, LPS-stimulated, p < 0.001, similar values to Dex 1 μM): significant reduction
- TNF-α production ([7]; all concentrations tested (10, 30 and 50 μM), 1 h pre-treatment, LPS 1 μg/mL 24 h, vs LPS group): significantly reduced
- reduction of ROS levels ([8]; 10 μM): 23%
- reduction of ROS levels ([8]; 30 μM): 31%
- reduction of ROS levels ([8]; 50 μM): 32%
